Reference: ChEMBL document CHEMBL3991601, “The target landscape of clinical kinase drugs” (Science, 2017)
Calls of active or inactive are those of the source.

Tests used:
[1] = molecular target: Serine/threonine-protein kinase ATR (Homo sapiens, UniProt Q13535)
[2] = molecular target: Glycogen synthase kinase-3 beta (Homo sapiens, UniProt P49841)
[3] = molecular target: Phosphatidylethanolamine-binding protein 1 (Homo sapiens, UniProt P30086)
[4] = molecular target: T1, Cyclin-dependent kinase-like 5 (Homo sapiens, UniProt O76039)
T1 sequence (O76039 whole entry): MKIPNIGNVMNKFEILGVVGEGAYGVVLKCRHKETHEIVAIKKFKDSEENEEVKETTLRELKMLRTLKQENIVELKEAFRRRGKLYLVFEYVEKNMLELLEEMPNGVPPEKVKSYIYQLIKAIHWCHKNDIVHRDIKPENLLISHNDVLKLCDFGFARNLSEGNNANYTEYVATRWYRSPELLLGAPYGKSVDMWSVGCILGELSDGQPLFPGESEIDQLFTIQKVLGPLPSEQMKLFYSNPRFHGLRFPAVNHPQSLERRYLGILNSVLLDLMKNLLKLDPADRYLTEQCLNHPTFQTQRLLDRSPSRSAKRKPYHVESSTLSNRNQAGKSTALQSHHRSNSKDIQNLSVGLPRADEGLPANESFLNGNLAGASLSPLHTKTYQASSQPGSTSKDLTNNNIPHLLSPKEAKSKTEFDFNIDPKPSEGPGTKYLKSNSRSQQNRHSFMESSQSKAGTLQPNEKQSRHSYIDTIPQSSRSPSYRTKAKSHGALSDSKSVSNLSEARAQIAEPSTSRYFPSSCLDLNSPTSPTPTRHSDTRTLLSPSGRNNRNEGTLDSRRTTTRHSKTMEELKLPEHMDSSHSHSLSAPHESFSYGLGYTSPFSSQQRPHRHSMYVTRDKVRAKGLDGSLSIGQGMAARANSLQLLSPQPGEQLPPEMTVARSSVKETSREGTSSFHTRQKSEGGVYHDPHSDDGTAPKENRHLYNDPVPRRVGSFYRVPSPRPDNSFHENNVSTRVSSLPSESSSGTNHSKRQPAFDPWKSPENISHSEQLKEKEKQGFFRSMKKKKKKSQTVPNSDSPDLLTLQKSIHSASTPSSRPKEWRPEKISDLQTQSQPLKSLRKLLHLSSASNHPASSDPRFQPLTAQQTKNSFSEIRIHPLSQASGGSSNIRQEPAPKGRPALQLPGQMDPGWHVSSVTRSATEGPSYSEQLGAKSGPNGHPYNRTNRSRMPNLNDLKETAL

[5] = molecular target: Serine/threonine-protein kinase N3 (Homo sapiens, UniProt Q6P5Z2)
[6] = molecular target: T2, Dual specificity protein kinase TTK (Homo sapiens, UniProt P33981)
T2 sequence (P33981 whole entry): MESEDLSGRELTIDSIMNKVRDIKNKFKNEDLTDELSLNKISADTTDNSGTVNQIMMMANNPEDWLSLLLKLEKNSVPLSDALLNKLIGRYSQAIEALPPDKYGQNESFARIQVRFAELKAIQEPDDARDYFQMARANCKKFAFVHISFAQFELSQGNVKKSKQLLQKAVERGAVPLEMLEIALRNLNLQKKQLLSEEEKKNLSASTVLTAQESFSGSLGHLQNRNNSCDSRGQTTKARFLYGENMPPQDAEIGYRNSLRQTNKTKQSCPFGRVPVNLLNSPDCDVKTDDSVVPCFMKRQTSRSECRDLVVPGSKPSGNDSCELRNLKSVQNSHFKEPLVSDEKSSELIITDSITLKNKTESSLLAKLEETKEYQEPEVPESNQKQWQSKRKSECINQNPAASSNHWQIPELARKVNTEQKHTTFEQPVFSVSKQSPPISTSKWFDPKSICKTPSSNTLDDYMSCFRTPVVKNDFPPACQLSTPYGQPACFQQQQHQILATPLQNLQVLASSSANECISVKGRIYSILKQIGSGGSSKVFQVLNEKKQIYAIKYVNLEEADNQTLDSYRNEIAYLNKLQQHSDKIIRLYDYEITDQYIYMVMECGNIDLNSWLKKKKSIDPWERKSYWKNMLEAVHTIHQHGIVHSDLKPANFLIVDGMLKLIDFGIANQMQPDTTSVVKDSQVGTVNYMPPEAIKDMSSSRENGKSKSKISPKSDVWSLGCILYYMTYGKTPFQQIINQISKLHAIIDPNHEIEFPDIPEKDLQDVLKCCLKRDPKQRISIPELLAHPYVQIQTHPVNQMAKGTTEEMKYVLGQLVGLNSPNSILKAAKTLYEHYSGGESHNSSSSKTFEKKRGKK

[7] = molecular target: T3, Isoleucine--tRNA ligase, mitochondrial (Homo sapiens, UniProt Q9NSE4)
T3 sequence (Q9NSE4 whole entry): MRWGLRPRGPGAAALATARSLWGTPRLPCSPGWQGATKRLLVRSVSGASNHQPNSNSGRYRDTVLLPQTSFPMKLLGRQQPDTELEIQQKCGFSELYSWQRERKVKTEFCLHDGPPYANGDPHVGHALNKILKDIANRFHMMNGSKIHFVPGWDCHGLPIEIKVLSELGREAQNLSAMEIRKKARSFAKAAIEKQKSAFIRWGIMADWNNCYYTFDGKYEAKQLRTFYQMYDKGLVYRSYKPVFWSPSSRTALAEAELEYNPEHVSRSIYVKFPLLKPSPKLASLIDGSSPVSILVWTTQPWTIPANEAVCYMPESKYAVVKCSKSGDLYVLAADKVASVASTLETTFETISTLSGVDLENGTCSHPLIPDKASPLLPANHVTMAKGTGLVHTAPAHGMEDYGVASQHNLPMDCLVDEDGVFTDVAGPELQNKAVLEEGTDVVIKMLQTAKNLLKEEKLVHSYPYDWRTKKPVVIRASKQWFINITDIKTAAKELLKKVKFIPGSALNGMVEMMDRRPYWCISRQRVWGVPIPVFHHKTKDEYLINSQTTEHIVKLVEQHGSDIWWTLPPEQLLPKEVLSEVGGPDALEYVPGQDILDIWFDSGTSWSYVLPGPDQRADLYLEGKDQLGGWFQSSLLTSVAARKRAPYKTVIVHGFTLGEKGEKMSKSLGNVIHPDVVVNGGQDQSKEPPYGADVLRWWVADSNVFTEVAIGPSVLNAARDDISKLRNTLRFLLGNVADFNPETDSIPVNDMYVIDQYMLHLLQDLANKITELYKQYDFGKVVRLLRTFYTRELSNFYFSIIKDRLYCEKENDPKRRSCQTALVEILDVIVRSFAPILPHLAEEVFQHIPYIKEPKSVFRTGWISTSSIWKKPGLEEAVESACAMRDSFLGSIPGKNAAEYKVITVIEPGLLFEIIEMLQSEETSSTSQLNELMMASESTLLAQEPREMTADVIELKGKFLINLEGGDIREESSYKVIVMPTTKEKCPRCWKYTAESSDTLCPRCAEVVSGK
Also: in the data inactive means no Kd found up to 30 µM.

Serine/threonine-protein kinase ATR, sequence (Q13535 whole entry): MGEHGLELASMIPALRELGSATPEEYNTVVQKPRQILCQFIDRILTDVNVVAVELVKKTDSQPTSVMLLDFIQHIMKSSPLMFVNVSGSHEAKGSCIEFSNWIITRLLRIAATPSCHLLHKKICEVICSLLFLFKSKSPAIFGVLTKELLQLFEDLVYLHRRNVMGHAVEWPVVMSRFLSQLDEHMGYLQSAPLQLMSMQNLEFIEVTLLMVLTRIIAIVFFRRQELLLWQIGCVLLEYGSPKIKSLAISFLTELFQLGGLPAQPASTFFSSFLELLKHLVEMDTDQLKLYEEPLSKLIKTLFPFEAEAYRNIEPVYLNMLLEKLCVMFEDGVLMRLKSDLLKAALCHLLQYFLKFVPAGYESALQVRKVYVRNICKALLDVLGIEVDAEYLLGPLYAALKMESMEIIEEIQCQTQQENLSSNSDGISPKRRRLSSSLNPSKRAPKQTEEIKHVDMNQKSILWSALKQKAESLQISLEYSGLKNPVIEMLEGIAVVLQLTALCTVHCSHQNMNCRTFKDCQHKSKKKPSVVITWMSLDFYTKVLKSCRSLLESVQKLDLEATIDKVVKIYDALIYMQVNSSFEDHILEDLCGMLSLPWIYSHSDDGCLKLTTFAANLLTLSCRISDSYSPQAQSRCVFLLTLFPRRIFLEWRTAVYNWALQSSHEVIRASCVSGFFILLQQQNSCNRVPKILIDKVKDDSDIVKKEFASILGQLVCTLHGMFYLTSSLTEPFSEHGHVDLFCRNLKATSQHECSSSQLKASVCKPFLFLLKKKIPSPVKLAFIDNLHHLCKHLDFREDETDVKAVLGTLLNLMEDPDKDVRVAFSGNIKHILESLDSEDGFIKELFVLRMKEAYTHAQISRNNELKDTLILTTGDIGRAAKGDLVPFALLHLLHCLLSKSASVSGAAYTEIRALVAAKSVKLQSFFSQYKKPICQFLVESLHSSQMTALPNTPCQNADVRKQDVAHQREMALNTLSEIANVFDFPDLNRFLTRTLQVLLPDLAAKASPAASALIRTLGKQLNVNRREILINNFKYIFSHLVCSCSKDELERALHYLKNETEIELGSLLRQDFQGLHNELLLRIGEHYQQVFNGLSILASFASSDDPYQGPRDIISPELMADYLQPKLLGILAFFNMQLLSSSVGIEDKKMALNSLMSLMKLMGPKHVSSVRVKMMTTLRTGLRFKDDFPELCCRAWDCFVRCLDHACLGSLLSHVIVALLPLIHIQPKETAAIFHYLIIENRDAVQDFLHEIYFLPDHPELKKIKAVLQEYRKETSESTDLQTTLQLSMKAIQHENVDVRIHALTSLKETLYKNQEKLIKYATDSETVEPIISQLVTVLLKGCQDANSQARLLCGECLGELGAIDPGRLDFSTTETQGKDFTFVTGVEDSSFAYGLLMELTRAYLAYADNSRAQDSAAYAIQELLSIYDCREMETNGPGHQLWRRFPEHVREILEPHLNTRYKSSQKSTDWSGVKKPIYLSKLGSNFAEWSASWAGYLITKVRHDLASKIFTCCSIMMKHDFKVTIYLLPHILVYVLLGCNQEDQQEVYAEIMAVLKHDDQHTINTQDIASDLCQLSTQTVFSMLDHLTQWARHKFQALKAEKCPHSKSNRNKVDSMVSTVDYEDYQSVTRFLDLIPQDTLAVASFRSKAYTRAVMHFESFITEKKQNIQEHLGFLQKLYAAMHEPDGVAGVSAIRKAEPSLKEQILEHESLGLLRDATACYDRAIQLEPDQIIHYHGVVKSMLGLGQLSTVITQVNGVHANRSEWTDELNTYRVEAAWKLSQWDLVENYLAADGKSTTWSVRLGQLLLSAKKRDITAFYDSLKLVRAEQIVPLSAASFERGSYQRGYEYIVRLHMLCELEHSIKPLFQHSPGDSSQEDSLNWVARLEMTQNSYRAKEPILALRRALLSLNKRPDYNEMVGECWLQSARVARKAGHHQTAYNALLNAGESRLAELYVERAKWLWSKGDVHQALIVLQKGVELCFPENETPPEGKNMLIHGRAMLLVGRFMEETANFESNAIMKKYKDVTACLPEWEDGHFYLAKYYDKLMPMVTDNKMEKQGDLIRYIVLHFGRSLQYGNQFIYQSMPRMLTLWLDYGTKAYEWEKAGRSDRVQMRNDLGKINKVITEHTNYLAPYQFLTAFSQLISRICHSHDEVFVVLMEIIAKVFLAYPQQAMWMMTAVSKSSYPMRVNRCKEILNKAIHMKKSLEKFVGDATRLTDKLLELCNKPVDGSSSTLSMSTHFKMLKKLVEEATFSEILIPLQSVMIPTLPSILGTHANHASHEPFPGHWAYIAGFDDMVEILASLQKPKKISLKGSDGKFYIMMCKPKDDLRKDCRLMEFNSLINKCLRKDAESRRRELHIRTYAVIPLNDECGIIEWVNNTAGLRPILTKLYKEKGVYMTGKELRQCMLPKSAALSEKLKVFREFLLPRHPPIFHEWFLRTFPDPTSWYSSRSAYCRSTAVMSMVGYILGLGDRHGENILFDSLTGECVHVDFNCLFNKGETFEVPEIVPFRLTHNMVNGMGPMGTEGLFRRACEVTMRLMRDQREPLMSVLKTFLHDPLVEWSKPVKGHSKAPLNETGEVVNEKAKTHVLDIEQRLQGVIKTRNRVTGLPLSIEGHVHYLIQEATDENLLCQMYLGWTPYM
Phosphatidylethanolamine-binding protein 1, sequence (P30086 whole entry): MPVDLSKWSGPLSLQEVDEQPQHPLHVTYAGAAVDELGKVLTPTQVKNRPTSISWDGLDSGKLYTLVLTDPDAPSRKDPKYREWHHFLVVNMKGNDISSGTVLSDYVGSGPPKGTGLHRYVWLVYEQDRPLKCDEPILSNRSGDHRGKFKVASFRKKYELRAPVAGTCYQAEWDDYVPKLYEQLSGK
Glycogen synthase kinase-3 beta, sequence (P49841 whole entry): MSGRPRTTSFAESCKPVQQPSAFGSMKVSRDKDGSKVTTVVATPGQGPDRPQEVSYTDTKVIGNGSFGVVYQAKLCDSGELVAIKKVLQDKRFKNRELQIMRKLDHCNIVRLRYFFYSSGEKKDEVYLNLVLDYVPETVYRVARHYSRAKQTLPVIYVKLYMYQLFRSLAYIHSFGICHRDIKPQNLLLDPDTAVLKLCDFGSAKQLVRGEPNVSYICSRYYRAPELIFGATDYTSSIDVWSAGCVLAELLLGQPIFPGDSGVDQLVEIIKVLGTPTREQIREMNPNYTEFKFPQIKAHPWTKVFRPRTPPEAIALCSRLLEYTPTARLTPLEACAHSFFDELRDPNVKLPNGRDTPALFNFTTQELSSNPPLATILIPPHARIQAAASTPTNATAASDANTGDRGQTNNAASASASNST
Serine/threonine-protein kinase N3, sequence (Q6P5Z2 whole entry): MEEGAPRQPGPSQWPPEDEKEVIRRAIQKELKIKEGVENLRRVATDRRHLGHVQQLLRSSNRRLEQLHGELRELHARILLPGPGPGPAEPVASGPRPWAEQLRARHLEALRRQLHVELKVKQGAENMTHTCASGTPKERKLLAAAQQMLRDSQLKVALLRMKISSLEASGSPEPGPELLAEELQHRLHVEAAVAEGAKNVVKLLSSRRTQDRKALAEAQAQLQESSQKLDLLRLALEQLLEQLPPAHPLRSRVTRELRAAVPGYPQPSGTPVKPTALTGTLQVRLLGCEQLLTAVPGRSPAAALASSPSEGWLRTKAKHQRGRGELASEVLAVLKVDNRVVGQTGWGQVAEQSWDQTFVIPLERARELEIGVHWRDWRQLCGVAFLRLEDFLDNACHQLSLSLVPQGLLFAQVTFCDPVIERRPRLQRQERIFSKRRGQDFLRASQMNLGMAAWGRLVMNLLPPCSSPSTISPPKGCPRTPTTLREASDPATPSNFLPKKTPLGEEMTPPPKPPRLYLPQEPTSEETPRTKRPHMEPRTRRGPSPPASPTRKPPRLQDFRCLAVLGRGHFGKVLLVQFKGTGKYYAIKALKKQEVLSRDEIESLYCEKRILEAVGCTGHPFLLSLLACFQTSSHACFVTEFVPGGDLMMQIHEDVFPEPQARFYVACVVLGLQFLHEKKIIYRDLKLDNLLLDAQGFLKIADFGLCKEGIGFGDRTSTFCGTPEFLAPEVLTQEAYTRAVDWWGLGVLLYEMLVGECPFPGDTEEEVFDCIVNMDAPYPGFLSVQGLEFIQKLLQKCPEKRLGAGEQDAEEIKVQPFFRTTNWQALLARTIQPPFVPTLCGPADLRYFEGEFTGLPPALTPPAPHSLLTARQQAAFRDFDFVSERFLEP

Row | Compound | Kd [1] | Kd [2] | Kd [3] | Kd [4] | Kd [5] | Kd [6] | Kd [7]
1 | O=c1[nH]c([C@@H]2CCCN2)nc2c1oc1ccc(Cl)cc12 | > 30 µM (inactive) | 8.79 µM | > 30 µM (inactive) |  |  |  | 
2 | CCc1cc2c(cc1N1CCC(N3CCOCC3)CC1)C(C)(C)c1[nH]c3cc(C#N)ccc3c1C2=O [ALECTINIB] | > 30 µM (inactive) | > 30 µM (inactive) | > 30 µM (inactive) | > 30 µM (inactive) | > 30 µM (inactive) | > 30 µM (inactive) | 
3 | COc1ccc2c(OCc3nnc4ccc(-c5ccccc5)nn34)ccnc2c1 [AMG-208] | > 30 µM (inactive) | > 30 µM (inactive) | > 30 µM (inactive) | > 30 µM (inactive) | > 30 µM (inactive) |  | > 30 µM (inactive)
4 | Cc1cc(Nc2nc(N[C@@H](C)c3ncc(F)cn3)ncc2Cl)n[nH]1 [AZD-1480] | > 30 µM (inactive) | > 30 µM (inactive) | > 30 µM (inactive) | > 30 µM (inactive) | > 30 µM (inactive) |  | > 30 µM (inactive)
5 | CCN(CCCOc1ccc2c(Nc3cc(CC(=O)Nc4cccc(F)c4)n[nH]3)ncnc2c1)CCOP(=O)(O)O [BARASERTIB] | > 30 µM (inactive) |  | > 30 µM (inactive) | > 30 µM (inactive) |  |  | > 30 µM (inactive)
6 | C[C@@]1(C(=O)Nc2ccc(F)nc2)CCCN1c1nc(Nc2cc(C3CC3)n[nH]2)c2cccn2n1 [BMS-754807] | > 30 µM (inactive) |  | > 30 µM (inactive) |  |  |  | > 30 µM (inactive)
7 | CCOc1ccn(-c2ccc(F)cc2)c(=O)c1C(=O)Nc1ccc(Oc2ccnc(N)c2Cl)c(F)c1 [BMS-777607] | > 30 µM (inactive) |  | > 30 µM (inactive) | > 30 µM (inactive) |  |  | > 30 µM (inactive)
8 | COc1cc2c(Oc3ccc4[nH]c(C)cc4c3F)ncnc2cc1OCCCN1CCCC1 [CEDIRANIB] | > 30 µM (inactive) |  | > 30 µM (inactive) |  | > 30 µM (inactive) |  | > 30 µM (inactive)
9 | CNC(=O)c1ccc(Nc2ncc(C(F)(F)F)c(NCc3nccnc3N(C)S(C)(=O)=O)n2)cc1 [DEFACTINIB] | > 30 µM (inactive) | 1.32 µM (active) |  | 0.016 µM | > 30 µM (inactive) | > 30 µM (inactive) | 
10 | Cc1c(Cn2c(C)nc3c(C(=O)O)cc(N4CCOCC4)cc32)cccc1C(F)(F)F [GSK-2636771] | > 30 µM (inactive) | > 30 µM (inactive) |  |  |  | > 30 µM (inactive) | > 30 µM (inactive)
11 | O=S(=O)(c1cccc2c(O)nccc12)N1CCCNCC1 [HYDROXYFASUDIL] | > 30 µM (inactive) | > 30 µM (inactive) | > 30 µM (inactive) | > 30 µM (inactive) | > 30 µM (inactive) | > 30 µM (inactive) | 
12 | C#Cc1cccc(Nc2ncnc3cc4c(cc23)OCCOCCOCCO4)c1 [ICOTINIB] | > 30 µM (inactive) | > 30 µM (inactive) | > 30 µM (inactive) | > 30 µM (inactive) | > 30 µM (inactive) |  | > 30 µM (inactive)
13 | N#CCNC(=O)c1ccc(-c2ccnc(Nc3ccc(N4CCOCC4)cc3)n2)cc1 [MOMELOTINIB] |  |  | > 30 µM (inactive) | > 30 µM (inactive) |  | > 30 µM (inactive) | > 30 µM (inactive)
14 | O=C(NC[C@H](O)CO)c1ccncc1Nc1ccc(I)cc1F [PIMASERTIB] |  | > 30 µM (inactive) | > 30 µM (inactive) | > 30 µM (inactive) | > 30 µM (inactive) | > 30 µM (inactive) | 0.011 µM
15 | COc1cc(F)c(F)c(Nc2ccc(I)cc2F)c1NS(=O)(=O)C1(C[C@H](O)CO)CC1 [REFAMETINIB] | > 30 µM (inactive) | > 30 µM (inactive) | > 30 µM (inactive) | > 30 µM (inactive) |  |  | > 30 µM (inactive)
16 | COCCN1CCN(Cc2ccc(-c3n[nH]c4c3C(=O)c3c(NC(=O)NN5CCOCC5)cccc3-4)cc2)CC1 [RGB-286638] | > 30 µM (inactive) | 0.008 µM (active) | > 30 µM (inactive) |  |  |  | > 30 µM (inactive)
17 | C=CC(=O)Nc1cccc(Nc2nc(Nc3ccc(N4CCN(C(C)=O)CC4)cc3OC)ncc2C(F)(F)F)c1 [ROCILETINIB] | > 30 µM (inactive) | > 30 µM (inactive) | > 30 µM (inactive) |  |  |  | > 30 µM (inactive)
18 | O=C(O)c1ccc2c(c1)nc(Nc1cccc(Cl)c1)c1ccncc12 [SILMITASERTIB] | > 30 µM (inactive) |  |  | > 30 µM (inactive) | > 30 µM (inactive) | > 30 µM (inactive) | 
19 | CNC(=O)c1cc(COc2nnc(Nc3ccc(Cl)cc3)c3ccoc23)ccn1 [TELATINIB] | > 30 µM (inactive) | > 30 µM (inactive) | > 30 µM (inactive) |  | > 30 µM (inactive) | > 30 µM (inactive) | 
20 | Cc1cc(-c2cc(OC(=O)c3ccccc3)ccc2Cl)cc2nnc(Nc3ccc(OCCN4CCCC4)cc3)nc12 [TG100-801] | > 30 µM (inactive) | > 30 µM (inactive) |  | > 30 µM (inactive) | > 30 µM (inactive) | > 30 µM (inactive) | 
21 | C[C@@H]1COC(Nc2ccc3ncnc(Nc4ccc(OCc5nccs5)c(Cl)c4)c3c2)=N1 [VARLITINIB] | > 30 µM (inactive) | > 30 µM (inactive) |  | > 30 µM (inactive) | > 30 µM (inactive) | > 30 µM (inactive) | 
22 | NC(=O)c1ccc(N(C(N)=O)c2c(F)cccc2F)nc1-c1ccc(F)cc1F [VX-702] | > 30 µM (inactive) | > 30 µM (inactive) | > 30 µM (inactive) | > 30 µM (inactive) | > 30 µM (inactive) |  | 
23 | COc1cc2ncnc(Nc3ccc(O)cc3)c2cc1OC [WHI-P131] | > 30 µM (inactive) | > 30 µM (inactive) | > 30 µM (inactive) | > 30 µM (inactive) | > 30 µM (inactive) | > 30 µM (inactive) | 
